Assay results as given in PubChem BioAssay AID264 (DTP/NCI, 2004).
Inconclusive results are not listed.

System: nude mice, LX-1 lung xenograft intrarenal, tumor weight T/C
Assay: NCI In Vivo Anticancer Drug Screen. Data for tumor model Human Lung LX-1 Xenograft (intrarenal inoculation) in NU/NU Swiss (nude) mice
Conditions: endpoint: mean tumor weight change, higher = larger tumour
Outline: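 Antitumor effect is expressed as a ratio: the mean tumor measurement of the drug-treated group relative to that of the vehicle-dosed control group.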

[1] = dose: 75.0 mg/kg/injection, schedule: Q04DX003 (sc), vehicle: saline with Tween-80
[2] = dose: 0.5 mg/kg/injection, schedule: Q01DX010 (sc), vehicle: saline
[3] = dose: 1.0 mg/kg/injection, schedule: Q01DX010 (sc), vehicle: saline
[4] = dose: 50.0 mg/kg/injection, schedule: Q01DX010 (sc), vehicle: Klucel (hydroxypropylcellulose) (HPC)
[5] = dose: 300.0 mg/kg/injection, schedule: Q04DX003 (sc), vehicle: Klucel (hydroxypropylcellulose) (HPC)
[6] = dose: 600.0 mg/kg/injection, schedule: Q04DX003 (sc), vehicle: Klucel (hydroxypropylcellulose) (HPC)
[7] = dose: 1200.0 mg/kg/injection, schedule: Q04DX003 (sc), vehicle: Klucel (hydroxypropylcellulose) (HPC)
[8] = dose: 2400.0 mg/kg/injection, schedule: Q04DX003 (sc), vehicle: Klucel (hydroxypropylcellulose) (HPC)

COc1cccc2c1C(=O)c1c(O)c3c(c(O)c1C2=O)C[C@@](O)(/C(C)=N/NC(=O)c1cccc([N+](=O)[O-])c1)C[C@@H]3OC1CC(N)C(O)C(C)O1 (some centres undefined)
T/C (dose: 8.0 mg/kg/injection, schedule: Q01DX010 (sc), vehicle: water): 68 % of control | T/C (dose: 16.0 mg/kg/injection, schedule: Q01DX010 (sc), vehicle: water): 78 % of control | T/C (dose: 24.0 mg/kg/injection, schedule: Q04DX003 (sc), vehicle: water): 54 % of control | T/C (dose: 48.0 mg/kg/injection, schedule: Q04DX003 (sc), vehicle: water): 9 % of control | T/C (dose: 96.0 mg/kg/injection, schedule: Q04DX003 (sc), vehicle: water): 25 % of control

COc1ccc(CC2C(=O)NC(C)C(=O)N(C)C3Cc4ccc(cc4)Oc4cc(ccc4O)CC(C(=O)NC(C)C(=O)NC(C)C(=O)N2C)N(C)C3=O)cc1 (centres undefined)
T/C (dose: 4.0 mg/kg/injection, schedule: Q04DX003 (sc), vehicle: saline with Tween-80): 61 % of control | T/C (dose: 8.0 mg/kg/injection, schedule: Q04DX003 (sc), vehicle: saline with Tween-80): 25 % of control | T/C (dose: 16.0 mg/kg/injection, schedule: Q04DX003 (sc), vehicle: saline with Tween-80): 34 % of control | T/C (dose: 32.0 mg/kg/injection, schedule: Q04DX003 (sc), vehicle: saline with Tween-80): 27 % of control

CNc1nc2c(N)ncnc2n1C1OC(CO)C(O)C1O (centres undefined)
T/C (dose: 25.0 mg/kg/injection, schedule: Q04DX003 (sc), vehicle: saline): 103 % of control | T/C (dose: 50.0 mg/kg/injection, schedule: Q04DX003 (sc), vehicle: saline): 82 % of control | T/C (dose: 100.0 mg/kg/injection, schedule: Q04DX003 (sc), vehicle: saline): 57 % of control

O=C(O)C1CC1.[Ag]
T/C (dose: 37.5 mg/kg/injection, schedule: Q04DX003 (sc), vehicle: saline with Tween-80): 63 % of control | T/C [1]: 57 % of control | T/C (dose: 150.0 mg/kg/injection, schedule: Q04DX003 (sc), vehicle: saline with Tween-80): 62 % of control | T/C (dose: 300.0 mg/kg/injection, schedule: Q04DX003 (sc), vehicle: saline with Tween-80): 54 % of control

CNc1n[n+](-c2ccccc2)no1
T/C (dose: 37.5 mg/kg/injection, schedule: Q04DX003 (sc), vehicle: water): 98 % of control | T/C (dose: 75.0 mg/kg/injection, schedule: Q04DX003 (sc), vehicle: water): 92 % of control

COC1CC(CC2CCC(C)C(C(C)C(=O)O)O2)OC2(OC(C)(C3CCC(C)(C4OC(C5OC(O)(CO)C(C)CC5C)CC4C)O3)CC2C)C1C (centres undefined)
T/C (dose: 3.75 mg/kg/injection, schedule: Q04DX003 (sc), vehicle: Klucel (hydroxypropylcellulose) (HPC)): 110 % of control | T/C (dose: 7.5 mg/kg/injection, schedule: Q04DX003 (sc), vehicle: Klucel (hydroxypropylcellulose) (HPC)): 102 % of control | T/C (dose: 30.0 mg/kg/injection, schedule: Q04DX003 (sc), vehicle: Klucel (hydroxypropylcellulose) (HPC)): 108 % of control

COc1cccc2c1C(=O)c1c(O)c3c(c(O)c1C2=O)C[C@@](O)(C(C)=O)C[C@@H]3OC1CC(N)C(O)C(C)O1 (some centres undefined)
T/C [2]: 45 % of control | T/C [3]: 12 % of control | T/C (dose: 2.0 mg/kg/injection, schedule: Q01DX010 (sc), vehicle: saline): 19 % of control | T/C (dose: 4.0 mg/kg/injection, schedule: Q01DX010 (sc), vehicle: saline): 21 % of control

Cc1ccc2c(c1)C(=O)N(CC[P+](c1ccccc1)(c1ccccc1)c1ccccc1)C2=O
T/C (dose: 25.0 mg/kg/injection, schedule: Q01DX010 (sc), vehicle: Klucel (hydroxypropylcellulose) (HPC)): 51 % of control | T/C [4]: 37 % of control

C[C@@]1(CO)[C@H](O)CC[C@@]2(C)[C@H]1CC[C@H]1C[C@@H]3C[C@@]12CC[C@@]3(O)COC(=O)CN
T/C (dose: 133.0 mg/kg/injection, schedule: Q01DX010 (sc), vehicle: saline + alcohol): 101 % of control | T/C (dose: 200.0 mg/kg/injection, schedule: Q01DX010 (sc), vehicle: saline + alcohol): 106 % of control | T/C (dose: 62.5 micrograms/kg/injection, schedule: Q01DX010 (sc), vehicle: saline + alcohol): 102 % of control | T/C (dose: 500.0 micrograms/kg/injection, schedule: Q01DX010 (sc), vehicle: saline + alcohol): 115 % of control

CN(C)C(=O)SC1=C(c2c(Cl)cccc2Cl)C(=O)c2ccccc21
T/C [5]: 84 % of control | T/C [6]: 106 % of control | T/C [7]: 65 % of control | T/C [8]: 92 % of control

C=CS(C=C)=NS(=O)(=O)c1ccc(C)cc1
T/C (dose: 18.75 mg/kg/injection, schedule: Q04DX003 (sc), vehicle: Klucel (hydroxypropylcellulose) (HPC)): 108 % of control | T/C (dose: 37.5 mg/kg/injection, schedule: Q04DX003 (sc), vehicle: Klucel (hydroxypropylcellulose) (HPC)): 163 % of control | T/C (dose: 75.0 mg/kg/injection, schedule: Q04DX003 (sc), vehicle: Klucel (hydroxypropylcellulose) (HPC)): 71 % of control

CN1CCN(c2ccc3nc(-c4ccc5nc(-c6ccc(O)cc6)[nH]c5c4)[nH]c3c2)CC1
T/C (dose: 200.0 mg/kg/injection, schedule: Q04DX003 (sc), vehicle: saline): 73 % of control | T/C (dose: 400.0 mg/kg/injection, schedule: Q04DX003 (sc), vehicle: saline): 73 % of control

C=C1C(=O)OC2CC(C)C3C4OC4C(O)C3(C)C(O)C12 (centres undefined)
T/C (dose: 100.0 mg/kg/injection, schedule: Q04DX003 (sc), vehicle: saline with Tween-80): 97 % of control | T/C (dose: 800.0 mg/kg/injection, schedule: Q04DX003 (sc), vehicle: saline with Tween-80): 75 % of control

CC(C)NC(=O)OCc1c(COC(=O)NC(C)C)c(-c2ccc(Cl)c(Cl)c2)n2c1CCC2
T/C (dose: 25.0 mg/kg/injection, schedule: Q01DX010 (sc), vehicle: distilled water + Tween-80): 27 % of control | T/C (dose: 200.0 mg/kg/injection, schedule: Q04DX003 (sc), vehicle: distilled water + Tween-80): 68 % of control | T/C (dose: 400.0 mg/kg/injection, schedule: Q04DX003 (sc), vehicle: distilled water + Tween-80): 50 % of control | T/C (dose: 800.0 mg/kg/injection, schedule: Q04DX003 (sc), vehicle: distilled water + Tween-80): 40 % of control | T/C (dose: 1600.0 mg/kg/injection, schedule: Q04DX003 (sc), vehicle: distilled water + Tween-80): 90 % of control

BrC1c2cccc3cccc(c23)C1Br (centres undefined)
T/C (dose: 600.0 mg/kg/injection, schedule: Q04DX003 (sc), vehicle: saline with Tween-80): 155 % of control | T/C (dose: 1200.0 mg/kg/injection, schedule: Q04DX003 (sc), vehicle: saline with Tween-80): 96 % of control

O=c1[nH]c(=O)n([C@H]2CCCO2)cc1F
T/C [4]: 37 % of control | T/C (dose: 200.0 mg/kg/injection, schedule: Q01DX010 (sc), vehicle: Klucel (hydroxypropylcellulose) (HPC)): 93 % of control | T/C (dose: 400.0 mg/kg/injection, schedule: Q01DX010 (sc), vehicle: Klucel (hydroxypropylcellulose) (HPC)): 103 % of control

O=c1[nH]c(=O)n(C2CC(O)C(CO)O2)cc1F (centres undefined)
T/C (dose: 50.0 mg/kg/injection, schedule: Q01DX010 (sc), vehicle: water): 77 % of control | T/C (dose: 100.0 mg/kg/injection, schedule: Q01DX010 (sc), vehicle: water): 39 % of control

O=NNc1ccccn1
T/C (dose: 0.13 mg/kg/injection, schedule: Q01DX010 (sc), vehicle: saline): 120 % of control | T/C (dose: 0.25 mg/kg/injection, schedule: Q01DX010 (sc), vehicle: saline): 309 % of control | T/C [2]: 211 % of control | T/C [3]: 105 % of control | T/C (dose: 32.0 mg/kg/injection, schedule: Q01DX010 (sc), vehicle: saline): 46 % of control | T/C (dose: 64.0 mg/kg/injection, schedule: Q01DX010 (sc), vehicle: saline): 30 % of control

COc1ccc(Cl)[n+]([O-])n1
T/C (dose: 25.0 mg/kg/injection, schedule: Q04DX003 (sc), vehicle: Klucel (hydroxypropylcellulose) (HPC)): 83 % of control | T/C (dose: 50.0 mg/kg/injection, schedule: Q04DX003 (sc), vehicle: Klucel (hydroxypropylcellulose) (HPC)): 60 % of control | T/C (dose: 100.0 mg/kg/injection, schedule: Q04DX003 (sc), vehicle: Klucel (hydroxypropylcellulose) (HPC)): 80 % of control

O=C1C=C[C@H](O)[C@@]2(CO)O[C@@H]12
T/C (dose: 6.25 mg/kg/injection, schedule: Q04DX003 (sc), vehicle: saline with Tween-80): 108 % of control | T/C (dose: 12.5 mg/kg/injection, schedule: Q04DX003 (sc), vehicle: saline with Tween-80): 77 % of control

CC(=O)CC(C)=O.CC(=O)CC(C)=O.O=N[O-].O=N[O-].[Co]
T/C [1]: 114 % of control

O=c1oc2c(O)c(O)cc3c(=O)oc4c(O)c(O)cc1c4c23
T/C (dose: 150.0 mg/kg/injection, schedule: Q04DX003 (sc), vehicle: Klucel (hydroxypropylcellulose) (HPC)): 215 % of control | T/C [5]: 86 % of control | T/C [6]: 88 % of control | T/C [7]: 81 % of control

COc1cc(OC)c(OC)cc1/C=C\c1ccnc2ccccc12
T/C [5]: 62 % of control | T/C [6]: 82 % of control | T/C [7]: 90 % of control | T/C [8]: 81 % of control
